“Also recorded” adds a separate entry of the source.
What was measured:
[1] = molecular target: TYK2 (Homo sapiens (Human), UniProt P29597); assay: In vitro activity test of TYK2 kinase; format: biochemical
Method: (§1) Recombinant human JAK1, JAK2, JAK3, TyK2 protease, main instruments and reagents were provided by Eurofins in the UK
(§2) All compounds were prepared into a 100% DMSO solution and reached 50 times the final determined concentration. The test compound was diluted by 3 times the concentration gradient, and the final concentration was 10 μM to 0.001 μM, 9 concentrations in total, and the content of DMSO in the detection reaction was 2%. The working stock solution of the compound was added to a determination hole as the first component of the reaction, and then the remaining components were added according to the detailed scheme determination below.
(§3) Mg/ATP mixture was added to start the reaction. After incubation at room temperature for 40 minutes, 0.5% phosphoric acid was added to stop the reaction.

[2] = molecular target: JAK3 (Homo sapiens (Human), UniProt P52333); assay: In vitro activity test of JAK3 kinase; format: biochemical
Method: as §1, §2, §3

[3] = tested on: DSS induced ulcerative colitis and Crohn's disease in mice; assay: In vivo pharmacodynamic study on DSS induced inflammatory bowel disease (IBD) in mice; set-up: species or system mice (C57BL/6); Colon length: unit not given here
Text: Inflammatory bowl disease (IBD) is a kind of recurrent disease. It is difficult to cure, has a high recurrence rate, and has a poor prognosis, it has a certain correlation with the incidence of colon cancer. The development of drugs for the treatment of IBD will help alleviate the symptoms of ulcerative colitis and Crohn's disease and improve the quality of life of patients. The mouse inflammation model induced by dextran sulfate sodium (DSS) is similar to the human disease ulcerative colitis and Crohn's disease. It is a common classical model for preclinical evaluation of drug efficacy.
Preparation method of DSS: 20 g DSS was weighed, 1000 mL drinking water was added to form 2% DSS solution, and stored in a 4° C. refrigerator. It is effective within one month.
Preparation method of a solvent: Vehicle solution is an aqueous solution containing 0.5% methylcellulose and 0.5% Tween 80. Firstly, 5 g of methylcellulose was dissolved in 990 mL of pure water, then 5 g of Tween 80 was added in small amount for many times, mixed evenly and stored at room temperature.
Preparation method of compounds: the compound was weighed, an aqueous solution with a mass ratio of 0.5% methylcellulose+0.5% Tween 80 was added, and it was processed by ultrasonic until it was dissolved.
The adaptation period of the animals was 3 days. After adaptation, the animals were weighed every day. The blank group was given drinking water, and the other groups were given drinking water containing 2% DSS. The water volume was 5 mL/animal/day. The animals in the test drug group were administrated by gavage once a day. The blank group and […] group were given the same volume of vehicle, with the administration volume of 10 mL/kg. Every other day, the fecal viscosity was evaluated, feces were collected for fecal occult blood detection, and the disease activity index (DAI) score was calculated. DSS consumption was detected every day. Fresh DSS solution was replaced every two days. The dosing cycle was continuous intragastric administration for 7 days, followed by 4 days of drug withdrawal, followed by 7 days of continuous intragastric administration. Normal drinking water was changed when intragastric administration was stopped.
DAI is the sum of the scores of body weight, fecal viscosity and fecal occult blood. Among them, the semi quantitative detection method of piramine cave was adopted for detecting fecal occult blood, including adding piramine cave to the sample first, then adding hydrogen peroxide and ethanol solution, and reading and scoring the color within 2 min. Immediately generating purple blue is marked as 4+, generating the purple blue within 10 s is marked as 3+, generating purple red within 1 min is marked as 2+, and gradually generating the purple red within 1-2 min is marked as 1+, and generating no color reaction of purple orchid or purple red within the reading time is recorded as negative (−). After the experiment, the colon and spleen were taken, and the length of colon and the weight of spleen were measured. The spleen index was the ratio of spleen weight to body weight.

[4] = molecular target: JAK1 (Homo sapiens (Human), UniProt P23458); assay: In vitro activity test of JAK1 kinase; format: biochemical
Method: as §1, §2, §3

[5] = tested on: DNCB induced allergic dermatitis in mice; assay: In vivo pharmacodynamic study on DNCB induced allergic dermatitis (AD) in mice
Method: The animal allergic dermatitis model induced by 1-chloro-2,4-dinitrobenzene (DNCB) is basically consistent with the clinical manifestations of AD patients.
Preparation method of solvent: vehicle solution is 30% PEG-400+70% (5% HP-β-CD), pH 4-5. Firstly, 35 g HP-β-CD was dissolved in 700 mL MilliQ pure water, 300 mL PEG-400 was added and mixed well, the pH was adjusted to 4-5, and stored at room temperature.
Preparation method of compounds: the compounds were weighed and added to 30% PEG-400+ 70% (5% HP-β-CD) solution (by volume), and ultrasonically processed. After the solution was fully mixed, it is load into glass bottles and stored in a 4° C. refrigerator.
Seventy male Balb/c mice were weighed and randomly divided into 7 groups with 10 mice in each group.
The animal adaptation period was 3 days. It was adapted to shaving on the back. After 2 days, it was sensitized with the modeling solution, coated with 20 μL 0.5% DNCB solution on the right ear of the mouse, applied with 200 μL 0.5% DNCB solution on the back, once a day for 3 days. The mice were stimulated from day 4, and applied with 10 μL 1% DNCB solution on the right ear of mice, 100 μL 1% DNCB solution on the back of mice, respectively, once every 3 days.
On days 3, 9, 15, 21, and 27, the severity of specific dermatitis was evaluated by evaluating four clinical inflammatory indicators of atopic dermatitis: Erythema/bleeding, scar/dryness, edema, and infiltration/erosion. Each evaluation index has four grades: 0, none; 1. slight; 2. moderate; 3. obvious; 4. very obvious. Sum the scores represents score of the skin. […] The spleen was taken and the spleen index was calculated: spleen index=spleen weight (mg)/body weight (g).
The experimental data were expressed by means±standard error (Mean±SEM), and all data were statistically analyzed by one-way ANOVA, with P<0.05 as the statistical difference.

[6] = molecular target: JAK2 (Homo sapiens (Human), UniProt O60674); assay: In vitro activity test of JAK2 kinase; conditions: read-out: JAK2 (IC50)
[7] = day 2, 15 mg/kg p.o. qd, Mean±SEM
[8] = day 4, 15 mg/kg p.o. qd, Mean±SEM
[9] = day 6, 15 mg/kg p.o. qd, Mean±SEM
[10] = day 8, 15 mg/kg p.o. qd, Mean±SEM
[11] = day 12, 15 mg/kg p.o. qd, Mean±SEM
[12] = day 14, 15 mg/kg p.o. qd, Mean±SEM
[13] = day 16, 15 mg/kg p.o. qd, Mean±SEM
[14] = day 18, 15 mg/kg p.o. qd, Mean±SEM
[15] = after the experiment, 30 mg/kg p.o. qd, 28 days, Mean±SEM

Sequence of JAK3 (P52333 whole entry): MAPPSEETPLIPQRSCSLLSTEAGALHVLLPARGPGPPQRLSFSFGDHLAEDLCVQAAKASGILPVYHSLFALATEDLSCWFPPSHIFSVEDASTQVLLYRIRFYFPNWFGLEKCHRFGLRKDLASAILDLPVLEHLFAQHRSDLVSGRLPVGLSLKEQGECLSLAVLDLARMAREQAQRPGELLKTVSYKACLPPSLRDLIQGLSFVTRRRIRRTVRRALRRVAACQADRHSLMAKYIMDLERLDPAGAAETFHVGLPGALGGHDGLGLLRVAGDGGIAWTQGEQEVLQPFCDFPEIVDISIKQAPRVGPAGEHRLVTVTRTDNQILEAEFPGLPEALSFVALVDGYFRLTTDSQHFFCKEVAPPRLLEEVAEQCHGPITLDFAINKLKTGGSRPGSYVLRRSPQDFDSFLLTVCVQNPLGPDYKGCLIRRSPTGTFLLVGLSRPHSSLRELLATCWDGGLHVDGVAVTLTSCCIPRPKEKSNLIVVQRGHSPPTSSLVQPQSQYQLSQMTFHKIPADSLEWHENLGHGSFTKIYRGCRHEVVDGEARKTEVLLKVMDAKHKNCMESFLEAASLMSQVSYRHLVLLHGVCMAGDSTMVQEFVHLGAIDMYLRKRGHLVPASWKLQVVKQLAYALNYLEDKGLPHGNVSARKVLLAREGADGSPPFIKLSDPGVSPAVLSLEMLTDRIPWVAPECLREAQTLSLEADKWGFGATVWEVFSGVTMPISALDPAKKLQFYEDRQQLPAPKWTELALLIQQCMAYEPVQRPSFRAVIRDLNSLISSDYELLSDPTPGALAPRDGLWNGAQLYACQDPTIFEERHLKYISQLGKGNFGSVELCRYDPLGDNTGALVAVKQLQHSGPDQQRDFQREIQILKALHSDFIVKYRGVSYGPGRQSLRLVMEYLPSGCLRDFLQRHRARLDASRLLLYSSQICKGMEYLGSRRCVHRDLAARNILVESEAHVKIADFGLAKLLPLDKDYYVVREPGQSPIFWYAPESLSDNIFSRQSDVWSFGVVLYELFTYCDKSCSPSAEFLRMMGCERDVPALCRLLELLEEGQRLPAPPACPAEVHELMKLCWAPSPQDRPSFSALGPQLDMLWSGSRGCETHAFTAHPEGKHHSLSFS
Sequence of TYK2 (P29597 whole entry): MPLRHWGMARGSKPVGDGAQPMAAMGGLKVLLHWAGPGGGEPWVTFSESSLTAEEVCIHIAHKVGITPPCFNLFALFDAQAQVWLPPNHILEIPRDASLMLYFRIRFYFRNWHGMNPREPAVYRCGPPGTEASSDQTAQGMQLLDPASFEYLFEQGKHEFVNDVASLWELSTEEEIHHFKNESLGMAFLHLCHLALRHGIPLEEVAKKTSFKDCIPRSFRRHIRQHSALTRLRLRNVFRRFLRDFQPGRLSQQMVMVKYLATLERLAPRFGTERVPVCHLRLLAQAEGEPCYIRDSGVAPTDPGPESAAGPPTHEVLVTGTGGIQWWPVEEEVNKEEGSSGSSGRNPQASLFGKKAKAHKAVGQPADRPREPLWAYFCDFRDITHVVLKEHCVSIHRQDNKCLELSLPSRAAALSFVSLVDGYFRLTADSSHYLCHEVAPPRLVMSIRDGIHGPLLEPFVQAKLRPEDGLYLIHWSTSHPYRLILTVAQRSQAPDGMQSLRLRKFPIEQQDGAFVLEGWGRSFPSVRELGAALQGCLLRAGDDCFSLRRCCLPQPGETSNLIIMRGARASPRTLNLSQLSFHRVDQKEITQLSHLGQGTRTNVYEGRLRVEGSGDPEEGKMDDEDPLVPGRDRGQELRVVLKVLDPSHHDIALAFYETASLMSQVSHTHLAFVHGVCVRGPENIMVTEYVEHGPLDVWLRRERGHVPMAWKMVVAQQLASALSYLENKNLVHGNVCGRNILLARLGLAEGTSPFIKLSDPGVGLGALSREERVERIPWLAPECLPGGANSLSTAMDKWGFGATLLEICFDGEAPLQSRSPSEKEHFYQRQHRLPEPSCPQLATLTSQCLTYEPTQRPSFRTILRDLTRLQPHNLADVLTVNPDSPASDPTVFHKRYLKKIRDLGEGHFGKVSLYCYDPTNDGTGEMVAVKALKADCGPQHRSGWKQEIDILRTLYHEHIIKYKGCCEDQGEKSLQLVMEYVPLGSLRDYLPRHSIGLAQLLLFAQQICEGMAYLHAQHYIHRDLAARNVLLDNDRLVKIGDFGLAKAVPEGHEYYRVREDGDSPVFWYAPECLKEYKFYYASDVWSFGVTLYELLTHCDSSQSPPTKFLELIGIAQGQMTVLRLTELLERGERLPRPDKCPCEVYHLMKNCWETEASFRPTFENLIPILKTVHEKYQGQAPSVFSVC
Sequence of JAK2 (O60674 whole entry): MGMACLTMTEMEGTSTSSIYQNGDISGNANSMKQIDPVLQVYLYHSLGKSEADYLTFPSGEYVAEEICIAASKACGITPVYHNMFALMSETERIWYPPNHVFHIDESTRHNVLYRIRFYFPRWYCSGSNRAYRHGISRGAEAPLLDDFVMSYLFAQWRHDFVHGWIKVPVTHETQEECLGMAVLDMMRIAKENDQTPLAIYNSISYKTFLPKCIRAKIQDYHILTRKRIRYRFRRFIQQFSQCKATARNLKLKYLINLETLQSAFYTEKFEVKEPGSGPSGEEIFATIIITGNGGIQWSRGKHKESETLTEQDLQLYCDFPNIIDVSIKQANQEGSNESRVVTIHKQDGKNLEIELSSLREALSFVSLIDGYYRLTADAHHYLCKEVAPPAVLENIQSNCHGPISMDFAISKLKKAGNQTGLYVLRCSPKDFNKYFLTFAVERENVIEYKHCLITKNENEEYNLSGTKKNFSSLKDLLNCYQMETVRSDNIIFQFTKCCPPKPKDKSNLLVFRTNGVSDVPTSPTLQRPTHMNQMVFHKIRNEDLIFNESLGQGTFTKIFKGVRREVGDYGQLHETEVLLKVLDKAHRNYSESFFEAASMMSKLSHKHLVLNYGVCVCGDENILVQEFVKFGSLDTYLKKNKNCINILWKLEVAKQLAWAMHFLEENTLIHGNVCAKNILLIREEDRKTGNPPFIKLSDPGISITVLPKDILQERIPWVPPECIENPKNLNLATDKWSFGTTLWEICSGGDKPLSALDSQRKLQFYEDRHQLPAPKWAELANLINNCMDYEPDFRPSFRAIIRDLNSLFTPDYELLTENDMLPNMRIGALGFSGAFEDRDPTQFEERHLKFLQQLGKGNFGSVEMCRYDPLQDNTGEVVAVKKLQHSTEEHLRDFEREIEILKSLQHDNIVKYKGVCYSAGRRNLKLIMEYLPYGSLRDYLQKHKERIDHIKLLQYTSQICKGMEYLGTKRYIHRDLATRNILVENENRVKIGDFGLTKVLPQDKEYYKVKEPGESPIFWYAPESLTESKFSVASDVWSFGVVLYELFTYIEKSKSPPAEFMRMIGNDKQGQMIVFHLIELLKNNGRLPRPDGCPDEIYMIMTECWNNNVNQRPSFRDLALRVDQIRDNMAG
Sequence of JAK1 (P23458 whole entry): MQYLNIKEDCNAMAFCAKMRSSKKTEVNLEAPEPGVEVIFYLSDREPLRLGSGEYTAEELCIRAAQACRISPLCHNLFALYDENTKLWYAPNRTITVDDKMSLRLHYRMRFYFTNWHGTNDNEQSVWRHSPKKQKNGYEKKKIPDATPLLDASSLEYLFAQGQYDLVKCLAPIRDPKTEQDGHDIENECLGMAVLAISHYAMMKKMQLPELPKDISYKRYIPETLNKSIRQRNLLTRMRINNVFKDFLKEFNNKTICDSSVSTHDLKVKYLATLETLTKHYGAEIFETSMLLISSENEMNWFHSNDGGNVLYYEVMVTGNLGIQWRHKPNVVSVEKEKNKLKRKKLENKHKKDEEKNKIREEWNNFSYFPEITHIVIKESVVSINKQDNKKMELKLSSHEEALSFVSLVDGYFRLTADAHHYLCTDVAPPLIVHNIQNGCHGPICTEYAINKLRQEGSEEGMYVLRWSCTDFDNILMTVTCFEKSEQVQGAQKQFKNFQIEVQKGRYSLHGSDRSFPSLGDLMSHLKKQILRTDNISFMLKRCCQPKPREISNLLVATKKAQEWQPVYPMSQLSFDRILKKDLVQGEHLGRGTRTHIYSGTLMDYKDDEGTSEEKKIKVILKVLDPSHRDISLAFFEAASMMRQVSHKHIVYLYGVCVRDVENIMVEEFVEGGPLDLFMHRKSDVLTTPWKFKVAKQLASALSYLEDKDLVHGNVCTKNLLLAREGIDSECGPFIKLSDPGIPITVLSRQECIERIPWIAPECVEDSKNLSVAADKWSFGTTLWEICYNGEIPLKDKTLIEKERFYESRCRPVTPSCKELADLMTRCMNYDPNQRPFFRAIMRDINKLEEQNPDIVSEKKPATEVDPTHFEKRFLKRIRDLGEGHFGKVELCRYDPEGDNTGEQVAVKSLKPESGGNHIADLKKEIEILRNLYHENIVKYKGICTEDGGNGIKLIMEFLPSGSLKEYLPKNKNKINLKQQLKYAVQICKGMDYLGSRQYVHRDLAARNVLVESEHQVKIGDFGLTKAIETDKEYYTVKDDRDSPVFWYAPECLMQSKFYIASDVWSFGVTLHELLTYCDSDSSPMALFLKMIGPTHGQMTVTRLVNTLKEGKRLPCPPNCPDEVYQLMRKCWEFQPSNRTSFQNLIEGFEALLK

O=C(Nc1nc2cccc(C3CCC4(CC3)CN(C(=O)[C@H]3CC3(F)F)C4)n2n1)[C@@H]1CC1(F)F [Compound 9-3]
IC50 [1]: 105 nM
IC50 [2]: > 10000 nM
Colon shortening caused by DSS, compared with DSS group (in words) ([3]; 15 mg/kg p.o.): can reduce colon shortening
Increase of spleen index induced by DSS (in words) ([3]; 15 mg/kg p.o.): could reduce the increase of spleen index
Colon length ([3]; after the experiment, 15 mg/kg p.o. qd, Mean±SEM): 2.87 ± 0.11
Weight of mice ([3]; day 1, 15 mg/kg p.o. qd, Mean±SEM): 22.26 ± 0.29
DAI score [3, 7]: 0.40 ± 0.16
Weight of mice [3, 7]: 22.48 ± 0.29
Weight of mice ([3]; day 3, 15 mg/kg p.o. qd, Mean±SEM): 22.39 ± 0.27
DAI score [3, 8]: 1.70 ± 0.54
Weight of mice [3, 8]: 22.26 ± 0.31
Weight of mice ([3]; day 5, 15 mg/kg p.o. qd, Mean±SEM): 22.18 ± 0.40
DAI score [3, 9]: 2.40 ± 0.37
Weight of mice [3, 9]: 22.00 ± 0.43
Weight of mice ([3]; day 7, 15 mg/kg p.o. qd, Mean±SEM): 21.21 ± 0.53
DAI score [3, 10]: 4.70 ± 0.94
Weight of mice [3, 10]: 20.72 ± 0.67
Weight of mice ([3]; day 9, 15 mg/kg p.o. qd, Mean±SEM): 19.89 ± 0.37
Weight of mice ([3]; day 10, 15 mg/kg p.o. qd, Mean±SEM): 18.92 ± 0.47
Weight of mice ([3]; day 11, 15 mg/kg p.o. qd, Mean±SEM): 18.60 ± 0.62
DAI score [3, 11]: 4.11 ± 0.53
Weight of mice [3, 11]: 18.50 ± 0.74
Weight of mice ([3]; day 13, 15 mg/kg p.o. qd, Mean±SEM): 19.42 ± 0.78
DAI score [3, 12]: 4.88 ± 0.44
Weight of mice [3, 12]: 19.26 ± 0.93
Weight of mice ([3]; day 15, 15 mg/kg p.o. qd, Mean±SEM): 19.96 ± 0.84
DAI score [3, 13]: 3.67 ± 0.86
Weight of mice [3, 13]: 20.84 ± 0.46
Weight of mice ([3]; day 17, 15 mg/kg p.o. qd, Mean±SEM): 20.42 ± 0.50
DAI score [3, 14]: 4.83 ± 0.68
Weight of mice [3, 14]: 19.78 ± 0.43
Spleen index ([3]; ratio of spleen weight to body weight, 15 mg/kg p.o. qd, Mean±SEM): 4.98 ± 0.40
IC50 [4]: 7 nM
Effect on the weight of mice (in words) ([5]; 30 mg/kg p.o. qd, 28 days): no significant effect
Effect on treating allergic dermatitis (in words) ([5]; 30 mg/kg p.o. qd, DNCB mice): good disease treatment effect; also recorded: significant effect
Concentration of IgE in serum after drug intervention (in words) ([5]; 30 mg/kg p.o., vs DNCB group): significantly decreased
Spleen index after drug intervention (in words) ([5]; 30 mg/kg p.o., vs DNCB group): significantly decreased
Thickness of the right ear after drug intervention (in words) ([5]; 30 mg/kg p.o., vs DNCB group): significantly decreased
IgE concentration in serum [5, 15]: 6.39 ± 1.04
Thickness of the right ear [5, 15]: 0.252 ± 0.006
Weight of mice ([5]; day 1, 30 mg/kg p.o. qd from day 4, Mean±SEM): 19.32 ± 0.46
Skin score ([5]; day 3, 30 mg/kg p.o. qd from day 4, Mean±SEM): 0.7 ± 0.5
Weight of mice ([5]; day 4, 30 mg/kg p.o. qd, Mean±SEM): 20.02 ± 0.41
Weight of mice ([5]; day 7, 30 mg/kg p.o. qd, Mean±SEM): 19.24 ± 0.47
Skin score ([5]; day 9, 30 mg/kg p.o. qd, Mean±SEM): 3.4 ± 0.7
Weight of mice ([5]; day 10, 30 mg/kg p.o. qd, Mean±SEM): 19.41 ± 0.58
Weight of mice ([5]; day 13, 30 mg/kg p.o. qd, Mean±SEM): 20.83 ± 0.42
Skin score ([5]; day 15, 30 mg/kg p.o. qd, Mean±SEM): 4.2 ± 0.6
Weight of mice ([5]; day 16, 30 mg/kg p.o. qd, Mean±SEM): 21.49 ± 0.45
Weight of mice ([5]; day 19, 30 mg/kg p.o. qd, Mean±SEM): 23.36 ± 0.38
Skin score ([5]; day 21, 30 mg/kg p.o. qd, Mean±SEM): 5.4 ± 0.9
Weight of mice ([5]; day 22, 30 mg/kg p.o. qd, Mean±SEM): 23.67 ± 0.37
Weight of mice ([5]; day 25, 30 mg/kg p.o. qd, Mean±SEM): 23.14 ± 0.42
Skin score ([5]; day 27, 30 mg/kg p.o. qd, Mean±SEM): 2.2 ± 0.9
Skin score compared with DNCB group (in words) ([5]; day 27 of administration, 30 mg/kg p.o.): significant reduction
Weight of mice ([5]; day 28, 30 mg/kg p.o. qd, Mean±SEM): 24.15 ± 0.50
Spleen index ([5]; spleen weight (mg)/body weight (g), 30 mg/kg p.o. qd, 28 days, Mean±SEM): 4.17 ± 0.65
IC50 [6]: 292 nM

Reference: patent publication US12419873B2, “Use of JAK inhibitors in preparation of drugs for treating JAK kinase-related diseases” (ZHUHAI UNITED LABORATORIES CO., LTD., priority 2020, dated 2025)
